# From patent US10603298B2, “Succinate dehydrogenase inhibitors (SDHi's)” (Medical Research Council, priority 2014, dated 2020)
# Entries after “also recorded” stand apart in the source; their conditions may differ.
# Key:
# [1] = test system: mouse heart IR injury (myocardial infarction); assay: In vivo mouse cardiac IR injury (LAD ligation), infarct size by triphenyltetrazolium chloride staining; conditions: dimethyl succinate 8 mg/kg/min infused in combination with dimethyl malonate
# Description: For the in vivo heart IR model an open-chest, in situ heart model was used^31,32. Male mice (8-10 weeks; Charles River Laboratories, UK) were anaesthetised with sodium pentobarbital (70 mg/kg intraperitoneally (i.p.)), intubated endotracheally and ventilated with 3 cm H2O positive-end expiratory pressure. Adequacy of anaesthesia was monitored using corneal and withdrawal reflexes. Ventilation frequency was kept at 110 breaths per minute with tidal volume between 125-150 μL. A thoracotomy was performed and the heart exposed by stripping the pericardium. A prominent branch of the left anterior descending coronary artery (LAD) was surrounded by a 7-0 Prolene suture that was then passed through a small plastic tube. Ischaemia was induced by tightening the tubing against the heart surface. To assess metabolites during IR in vivo, mice were divided into three groups: 30 min ischaemia, 30 min ischaemia plus 5 min reperfusion and 30 min sham-operation in which the suture was placed but the LAD was not occluded. At the end of each protocol tissue was removed from the at risk and peripheral areas of the heart, selected visually by comparing white versus red tissue, and snap-frozen in liquid nitrogen. […] Infarct size was assessed after 30 min of ischaemia followed by 120 min reperfusion using 2% triphenyltetrazolium chloride staining and is expressed as a percentage of the risk zone^33. […]
# [2] = test system: adult primary rat cardiomyocytes; assay: NAD(P)H autofluorescence in primary cardiomyocytes during in situ IR; type: cell-based; conditions: 4 mM in ischaemic buffer
# Description: (§1) FIG. 14: Tracking NADH reduction state in primary cardiomyocytes during in situ IR. Primary rat cardiomyocytes were subjected to 40 min ischaemia and reoxygenation and NADH reduction state was tracked throughout the experiment by measurement of NAD(P)H autofluorescence. […] Representative traces of each condition are shown. The highlighted window indicates the period of the experiment expanded in detail in FIG. 3c.
# (§2) Male Sprague-Dawley rats (300-370 g) were terminally anaesthetised via IP injections of 200 mg/kg sodium pentobarbitone and 330 U/kg heparin. Hearts were excised and retrograde perfused on a Langendorff-perfusion system with 13 mL/min oxygenated KH buffer at 37° C. Cells were isolated by collagenase digestion using standard methods^41. […]
# (§3) Cells were imaged within 36 hours of plating. […] Simulated ischaemia was achieved by replacing the buffer with a pre-gassed, hypoxic recording buffer simulating ischaemia (as above but lacking glucose and containing 10 mM sodium lactate, 14.8 mM KCl; pH 6.4) and by covering the heated stage with a transparent, gas-impermeant lid, forming a small chamber into which argon was forced to maintain hypoxia. pO2 was routinely measured as <2.0 mm Hg during simulated ischaemia. […]
# (§4) ROS production was estimated by oxidation of DHE. […] All measured cell parameters were analysed with Fiji image processing software.
# [3] = test system: C2C12 myoblasts; assay: Succinate-dependent mitochondrial superoxide production (MitoSOX) in myoblasts; type: cell-based, mouse; conditions: C2C12 cells, normoxic, mitochondria hyperpolarised with oligomycin
# Description: C2C12 myoblasts were seeded in 35 mm glass bottom culture dishes (MatTek) and incubated for 24 h in low glucose (1 g/L) DMEM. 2 h prior to imaging DMEM was removed, and replaced with imaging buffer (132 mM NaCl; […]; 4.2 mM KCl; 1 mM MgCl2 1 mM CaCl2 adjusted to pH 7.4 with Tris base and supplemented with 2-deoxyglucose (25 μM), and sodium pyruvate (10 mg/L or 4 μM oligomycin as indicated). Myoblasts were pre-incubated with 2 μM MitoSOX for 15 min prior to imaging. MitoSOX fluorescence was monitored using a Nikon Eclipse Ti confocal microscope at 37° C. on a temperature controlled stage for 30 min. MitoSOX was excited at 510 nm and the emitted signal collected with a LP 560 filter following the indicated additions.
# [4] = test system: adult primary rat cardiomyocytes; assay: ROS production (DHE oxidation) in adult primary cardiomyocytes during in situ IR; type: cell-based; conditions: 40 min ischaemia then reoxygenation, 4 mM in ischaemic buffer
# Description: as §1, with “13:” for “14:”, “cardiomyocytes ROS levels” for “NADH reduction state”, “with ROS levels” for “and NADH reduction state was”, “by ratiometric” for “by”, “dihydroethidium (DHE) oxidation.” for “NAD(P)H autofluorescence.”, “3.a.” for “3c.”
# as §2, §3, §4
smiles,measurement,setting,value
COC(=O)CCC(=O)OC [dimethyl succinate],cardioprotection by dimethyl malonate after adding back dimethyl succinate,[1],cardioprotection was suppressed
same,NAD(P)H oxidation at reperfusion,[2],suppressed
same,MitoSOX oxidation,[3],increased MitoSOX oxidation
same,ROS production / DHE oxidation upon reperfusion,[4],significantly increased mitochondrial ROS production during reperfusion; also recorded: amplified reperfusion DHE oxidation
